From ChEMBL document CHEMBL4808216, “Gut-Restricted Selective Cyclooxygenase-2 (COX-2) Inhibitors for Chemoprevention of Colorectal Cancer” (J Med Chem, 2021) come the findings set out here.

Molecules are shown by their SMILES. ≈ marks a conversion by molar mass, not a printed value. Calls of active or inactive are those of the source. The calls are words filed in the database; no cut-off is given here.

Series [1] in a line: Oral bioavailability in C57BL/6J mouse at 10 mg/kg measured up to 24 hrs by LC-MS analysis. Format: ADME, organism-based. As to conditions: in vivo.
Series [2] addresses T1, Prostaglandin G/H synthase 1 (Homo sapiens, UniProt P23219). The series is described as follows: Inhibition of COX1 (unknown origin) expressed in HEK293 TRex cells assessed as reduction in PGE2 production using arachidonic acid as substrate preincubated for 60 mins followed by substrate addition for 1 hr in presence of 10% FBS by RapidFire High-Throughput Mass Spectrometry. Type of series: ADME, cell-based, HEK293-T-REx.

A short description of series [3]: Oral bioavailability in Sprague Dawley rat at 10 mg/kg measured up to 24 hrs by LC-MS analysis. As to conditions: in vivo. Format: ADME, organism-based.
A short description of series [4]: Half life in human hepatocytes. Type of series: ADME, cell-based, Hepatocyte.
Series [5] in a line: Ratio of drug concentration in C57BL/6J mouse colon to plasma at 10 mg/kg, po measured after 4 hr by liquid chromatographic triple-quadrupole mass spectrometric method. Type of series: ADME, organism-based. As to conditions: C57BL/6J, colon / plasma.
Series [6] can be described thus: Clearance in C57BL/6J mouse at 2 mg/kg, iv measured after 0.08 to 24 hrs. Type of series: ADME, organism-based. Particulars: in vivo, time 0.08-24 hrs.
Series [7] deals with T2, Prostaglandin G/H synthase 2 (Mus musculus, UniProt Q05769).
T2 sequence (Q05769 whole entry): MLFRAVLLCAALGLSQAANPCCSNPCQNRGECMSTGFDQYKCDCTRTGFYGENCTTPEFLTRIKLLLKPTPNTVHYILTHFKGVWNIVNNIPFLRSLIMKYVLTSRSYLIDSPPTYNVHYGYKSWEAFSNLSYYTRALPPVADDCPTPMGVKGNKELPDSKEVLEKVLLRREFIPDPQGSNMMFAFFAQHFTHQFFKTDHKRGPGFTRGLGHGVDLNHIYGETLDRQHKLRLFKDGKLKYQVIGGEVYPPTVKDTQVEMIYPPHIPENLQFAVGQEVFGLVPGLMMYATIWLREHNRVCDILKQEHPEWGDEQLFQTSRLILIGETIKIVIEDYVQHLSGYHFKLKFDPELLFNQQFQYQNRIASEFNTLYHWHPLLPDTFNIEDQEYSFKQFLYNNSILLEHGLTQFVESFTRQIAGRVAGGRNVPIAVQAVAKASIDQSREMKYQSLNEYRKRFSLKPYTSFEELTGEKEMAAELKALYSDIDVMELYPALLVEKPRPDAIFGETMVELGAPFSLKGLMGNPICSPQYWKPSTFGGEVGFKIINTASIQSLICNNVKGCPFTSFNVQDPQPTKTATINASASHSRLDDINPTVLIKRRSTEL
The series is described as follows: In vivo inhibition of COX2 in po dosed C57BL/6J mouse model of spontaneous GI-tract tumor Apc-min assessed as chemopreventive effect by measuring reduction in polyp area and relevant ileum exposures. Format: functional, organism-based.

Series [8] can be described thus: Oral bioavailability in Cynomolgus monkey at 10 mg/kg measured up to 24 hrs by LC-MS analysis. Format: ADME, organism-based, Macaca fascicularis. As to conditions: in vivo.
Series [9] has as its target T3, Prostaglandin G/H synthase 2 (Homo sapiens) (UniProt P35354).
T3 sequence (whole entry): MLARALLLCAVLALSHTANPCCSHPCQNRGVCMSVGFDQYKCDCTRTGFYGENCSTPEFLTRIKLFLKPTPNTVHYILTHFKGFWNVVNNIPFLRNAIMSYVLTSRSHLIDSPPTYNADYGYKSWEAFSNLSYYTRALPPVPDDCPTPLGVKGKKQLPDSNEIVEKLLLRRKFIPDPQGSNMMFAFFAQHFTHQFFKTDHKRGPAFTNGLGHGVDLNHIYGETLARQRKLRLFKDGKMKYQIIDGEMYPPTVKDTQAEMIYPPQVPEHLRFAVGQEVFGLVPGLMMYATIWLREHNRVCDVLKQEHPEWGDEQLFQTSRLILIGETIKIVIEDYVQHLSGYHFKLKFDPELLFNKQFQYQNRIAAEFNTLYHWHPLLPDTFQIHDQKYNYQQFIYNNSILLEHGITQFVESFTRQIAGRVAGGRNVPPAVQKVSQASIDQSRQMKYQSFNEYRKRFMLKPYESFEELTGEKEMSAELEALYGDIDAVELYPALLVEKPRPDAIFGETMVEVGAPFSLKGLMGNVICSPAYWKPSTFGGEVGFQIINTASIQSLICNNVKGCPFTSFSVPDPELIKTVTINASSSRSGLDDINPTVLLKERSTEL
Description: Protein occupancy at human recombinant COX-2 assessed as dissociation half life

Series [10] addresses T1, Prostaglandin G/H synthase 1. The series is described as follows: Inhibition of COX1 in human whole blood assessed as reduction in calcium ionophore-stimulated TXB2 production incubated for 1 hr by ELISA. Type of series: tissue-based.
Series [11] is described as follows: Half life in mouse liver microsomes. Format: ADME, Microsome.
Series [12] concerns the target T2, Prostaglandin G/H synthase 2. The series is described as follows: In vivo inhibition of COX2 in po dosed C57BL/6J mouse model of spontaneous GI-tract tumor Apc-min assessed as chemopreventive effect by measuring reduction in polyp area and relevant plasma exposures. Type of series: functional, organism-based.
In series [13] the target is T1, Prostaglandin G/H synthase 1. The series is described as follows: Inhibition of human recombinant COX-1 assessed as reduction in peroxidase activity using arachidonic acid as substrate preincubated for 60 mins followed by substrate addition for 2 secs by ADPH based fluorometric analysis. Format: ADME.
The nature of series [14]: Protein binding in human colon assessed as unbound fraction. Type of series: ADME, tissue-based.
Series [15] relates to Mus musculus. The series is described as follows: Chemo-protective activity in C57BL/6J mouse model of spontaneous GI-tract tumor Apc-min assessed as 18F-FDG uptake in ileum at 300 mg/kg, po incorporated into chow diet administered daily for 2 weeks and measured after 14 days by ex vivo PET imaging analysis relative to control. Type of series: functional.
Series [16] relates to Mus musculus. The series is described as follows: Antitumor activity in C57BL/6J mouse model of spontaneous GI-tract tumor Apc-min assessed as reduction in total ileum polyp area at 300 mg/kg, po administered as suspension for 10 to 12 weeks. Type of series: functional. As to conditions: time 10-12 weeks, read-out: TGI.
Series [17] deals with T4, Prostaglandin G/H synthase 2 (Homo sapiens, UniProt P35354).
T4 sequence (P35354 whole entry): T3 sequence (whole entry)
The series is described as follows: Inhibition of COX2 (unknown origin) expressed in HEK293 TRex cells assessed as reduction in PGE2 production using arachidonic acid as substrate preincubated for 60 mins followed by substrate addition for 1 hr in presence of 10% FBS by RapidFire High-Throughput Mass Spectrometry. Type of series: cell-based, HEK293-T-REx.

A further series in a line: in vivo. Particulars: C57BL/6J, mouse, colon / portal vein plasma, po, 10 mg/kg.
A short description of series [18]: Equilibrium solubility of compound in FASSIF at pH 6.5. Type of series: physicochemical.
Series [19] is described as follows: Volume of distribution at steady state in C57BL/6J mouse at 2 mg/kg, iv measured after 0.08 to 24 hrs. Type of series: ADME, organism-based. Particulars: C57BL/6J, in vivo, time 0.08-24 hrs, read-out: Vdss.
Series [20] in a line: Half life in mouse hepatocytes. Format: ADME, cell-based, Hepatocyte.
Series [21] can be described thus: Tmax in C57BL/6J mouse at 10 mg/kg, po administered as cassette dose measured at 4 hrs by liquid chromatographic triple-quadrupole mass spectrometric method. Format: ADME, organism-based. Particulars: in vivo.
In series [22] the test system is Mus musculus. The series is described as follows: Chemo-protective activity in po dosed C57BL/6J mouse model of spontaneous GI-tract tumor Apc-min assessed as reduction in 18F-FDG uptake in ileum incorporated into chow diet administered daily for 2 weeks and measured after 14 days by ex vivo PET imaging analysis. Type of series: functional, organism-based.
Series [23] deals with Mus musculus. The series is described as follows: Antitumor activity in po dosed C57BL/6J mouse model of spontaneous GI-tract tumor Apc-min assessed as reduction in total ileum polyp area administered as suspension for 10 to 12 weeks. Format: functional, organism-based. Particulars: time 10-12 weeks.

T1 sequence (P23219 whole entry): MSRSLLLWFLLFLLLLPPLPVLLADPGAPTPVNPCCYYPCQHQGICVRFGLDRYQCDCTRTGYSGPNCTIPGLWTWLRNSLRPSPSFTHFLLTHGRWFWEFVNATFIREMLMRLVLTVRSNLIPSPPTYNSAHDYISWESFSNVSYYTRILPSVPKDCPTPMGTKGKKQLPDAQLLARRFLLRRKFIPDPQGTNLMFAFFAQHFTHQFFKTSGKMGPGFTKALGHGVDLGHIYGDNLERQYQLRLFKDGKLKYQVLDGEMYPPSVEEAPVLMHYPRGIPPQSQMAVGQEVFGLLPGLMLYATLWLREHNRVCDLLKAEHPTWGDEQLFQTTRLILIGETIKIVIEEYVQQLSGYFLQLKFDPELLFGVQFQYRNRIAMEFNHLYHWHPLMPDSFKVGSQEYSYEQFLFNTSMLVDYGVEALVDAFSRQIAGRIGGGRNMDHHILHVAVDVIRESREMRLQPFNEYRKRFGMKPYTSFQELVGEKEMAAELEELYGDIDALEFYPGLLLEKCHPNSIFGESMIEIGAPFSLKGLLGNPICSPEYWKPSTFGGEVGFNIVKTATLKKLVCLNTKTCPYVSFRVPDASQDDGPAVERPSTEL
Description for in vivo: Ratio of drug concentration in C57BL/6J mouse colon to portal vein plasma at 10 mg/kg, po measured after 4 hr by liquid chromatographic triple-quadrupole mass spectrometric method

On to `CCCOc1nc(OCC(C)(C)O)c(-c2ccc(S(C)(=O)=O)cc2)cc1CO`, for which the values for the bioavailability in series [1], in [3] and in [8] were 4.25%, 2.3% and 20%, respectively. Also, the IC50 is above 50000 nM in [2]; 2380 nM in series [7]; 193000 nM in series [10]; 35 nM in series [12]; above 50000 nM in series [13]; 600 nM in series [17]. Also, the half-life in [4] was determined as 3.1 min; in [11] it was 19.6 min; in [20], 3 min. Further, the values for the Kp at 4 h (in series [5]; in the series “in vivo”) were 1280 and 38, respectively. The same molecule displayed a clearance in series [6] of 92.7 mL/min/kg. The T1/2 in series [9] came out at 534 min. Besides, in series [14], the free fraction (fraction unbound) came to 0.066. Besides, the Activity in the series with Mus musculus [15] is 35.6%; in the series with Mus musculus [23], “Dose-Dependent Effect”. Besides, the inhibition in vivo at 300 mg/kg in the series with Mus musculus [16] came to 41.9%. In [18], this molecule had a thermodynamic solubility of 25 µM (≈ 10.2 µg/mL). Further, the Vd in series [19] is 3.05 L/kg. The Tmax in series [21] was found to be 15 min. The result in the series on Mus musculus [22] was Active.
